Molecules are shown by their SMILES.

Assay [1] in a line: In vitro 1O2-scavenging capacity. It is filed as biochemical. The conditions noted are these: amino acid 80 μM; normalized to Cys; Figure S18.
The subject of assay [2] is •OH in chloroplasts of N. benthamiana leaf discs. As to the kind of experiment: In vivo •OH level in chloroplasts of leaf discs. It is filed as cell-based, Nicotiana benthamiana. Conditions: MV 0.35 μM, HPF 5 μM; MV(+) vs MV(−); n = 8; Figure S22.
For assay [3], the system named is ^1O2 in chloroplasts of N. benthamiana leaf discs. As to the kind of experiment: In vivo 1O2 level in chloroplasts of leaf discs. In kind it is cell-based, Nicotiana benthamiana. The conditions noted are these: MV 0.35 μM, SOSG 10 μM; MV(+) vs MV(−); n = 8; Figure S22.
Assay [4] is described as follows: In vitro •OH-scavenging capacity. Conditions: amino acid 80 μM; Cys, Met and Trp compared, normalized to Cys; Figure S18. It is filed as biochemical.

For `N[C@@H](CS)C(=O)O` [Cys, cysteine], the “1O2-scavenging capacity of amino acids compared with Trp” value in assay [1] is listed as “more effective scavengers for ^1O2 than Trp”.

`C[n+]1ccc(-c2cc[n+](C)cc2)cc1` [MV, methyl viologen]: the “effect on cellular levels of •OH” value in assay [2] is recorded as “elevated the cellular levels of •OH”. For the same molecule, the “effect on cellular levels of 1O2” value in assay [3] was “did not affect those of ^1O2”.

In the case of `CSCC[C@H](N)C(=O)O` [Met, methionine], the “1O2-scavenging capacity of amino acids compared with Trp” value in assay [1] was “more effective scavengers for ^1O2 than Trp”.

Regarding `N[C@@H](Cc1c[nH]c2ccccc12)C(=O)O` [Trp, tryptophan], the “•OH-scavenging capacity of amino acids” value in assay [4] is recorded as “highest •OH-scavenging capacity”.
